Reference: BindingDB's records for doi:10.1016/j.bmcl.2008.12.086 (Columbia University, 2009)
pEC50: −log10 of the molar value.

Assays:
Transcription factor p65 [1] = target: T1, Transcription factor p65 (Human, UniProt Q04206); test: Induction of NF-kappaB p65 nuclear translocation in HUVEC cells by immunostaining
Transcription factor p65 [2] = target: T1, Transcription factor p65; test: Potentiation of TNF-alpha-induced NF-kappaB p65 nuclear translocation in HUVEC cells by immunostaining

T1 sequence (Q04206 whole entry): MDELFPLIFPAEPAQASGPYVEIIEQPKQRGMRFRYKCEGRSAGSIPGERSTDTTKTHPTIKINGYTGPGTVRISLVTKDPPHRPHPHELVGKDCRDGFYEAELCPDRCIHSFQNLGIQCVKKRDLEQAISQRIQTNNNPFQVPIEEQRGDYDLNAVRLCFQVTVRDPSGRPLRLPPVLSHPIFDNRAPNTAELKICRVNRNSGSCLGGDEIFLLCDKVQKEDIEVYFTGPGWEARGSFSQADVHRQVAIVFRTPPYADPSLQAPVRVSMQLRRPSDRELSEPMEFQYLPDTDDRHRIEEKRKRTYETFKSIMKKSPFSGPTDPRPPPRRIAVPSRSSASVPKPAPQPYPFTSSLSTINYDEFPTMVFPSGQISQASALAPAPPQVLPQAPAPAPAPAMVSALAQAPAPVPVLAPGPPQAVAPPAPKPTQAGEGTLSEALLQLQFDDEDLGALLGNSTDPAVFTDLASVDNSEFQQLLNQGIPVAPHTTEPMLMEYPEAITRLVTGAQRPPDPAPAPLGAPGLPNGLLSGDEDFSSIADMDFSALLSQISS

pEC50 (Transcription factor p65 [1])	pEC50 (Transcription factor p65 [2])	Structure (SMILES)
5.80	6.42	COc1cccc2nc(-c3cccs3)nc(NN3C(=O)C=C(C)C3=O)c12 [1-(5-Methoxy-2-thiophen-2-yl-quinazolin-4-ylamino)-3-methyl-pyrrole-2,5-dione]
5.62	6.51	COc1ccc(Cl)c2nc(-c3cccs3)nc(NN3C(=O)C=C(C)C3=O)c12 [1-(8-chloro-5-methoxy-2-(thiophen-2-yl)quinazolin-4-ylamino)-3-methyl-1H-pyrrole-2,5-dione]
5.01	4.38	COc1ccc2nc(-c3cccs3)nc(NN3C(=O)C=C(C)C3=O)c2c1 [1-(6-methoxy-2-(thiophen-2-yl)quinazolin-4-ylamino)-3-methyl-1H-pyrrole-2,5-dione]
